From patent US20200377481A1, “SUBSTITUTED 4-(1-PYRROLIDINYL)PYRIMIDINE COMPOUNDS AS DIMERIZATION INHIBITORS OF NEURONAL NITRIC OXIDE SYNTHASE” (Northwestern University, priority 2016, published 2020) come the findings set out here.

For experiment [1], the target named is T1, iNOS (Mus musculus, UniProt P29477).
T1 construct: endogenous in cells; host or cells: Raw 264.7 cells stimulated with E. coli LPS and IFN-gamma
T1 sequence (P29477 1-1144): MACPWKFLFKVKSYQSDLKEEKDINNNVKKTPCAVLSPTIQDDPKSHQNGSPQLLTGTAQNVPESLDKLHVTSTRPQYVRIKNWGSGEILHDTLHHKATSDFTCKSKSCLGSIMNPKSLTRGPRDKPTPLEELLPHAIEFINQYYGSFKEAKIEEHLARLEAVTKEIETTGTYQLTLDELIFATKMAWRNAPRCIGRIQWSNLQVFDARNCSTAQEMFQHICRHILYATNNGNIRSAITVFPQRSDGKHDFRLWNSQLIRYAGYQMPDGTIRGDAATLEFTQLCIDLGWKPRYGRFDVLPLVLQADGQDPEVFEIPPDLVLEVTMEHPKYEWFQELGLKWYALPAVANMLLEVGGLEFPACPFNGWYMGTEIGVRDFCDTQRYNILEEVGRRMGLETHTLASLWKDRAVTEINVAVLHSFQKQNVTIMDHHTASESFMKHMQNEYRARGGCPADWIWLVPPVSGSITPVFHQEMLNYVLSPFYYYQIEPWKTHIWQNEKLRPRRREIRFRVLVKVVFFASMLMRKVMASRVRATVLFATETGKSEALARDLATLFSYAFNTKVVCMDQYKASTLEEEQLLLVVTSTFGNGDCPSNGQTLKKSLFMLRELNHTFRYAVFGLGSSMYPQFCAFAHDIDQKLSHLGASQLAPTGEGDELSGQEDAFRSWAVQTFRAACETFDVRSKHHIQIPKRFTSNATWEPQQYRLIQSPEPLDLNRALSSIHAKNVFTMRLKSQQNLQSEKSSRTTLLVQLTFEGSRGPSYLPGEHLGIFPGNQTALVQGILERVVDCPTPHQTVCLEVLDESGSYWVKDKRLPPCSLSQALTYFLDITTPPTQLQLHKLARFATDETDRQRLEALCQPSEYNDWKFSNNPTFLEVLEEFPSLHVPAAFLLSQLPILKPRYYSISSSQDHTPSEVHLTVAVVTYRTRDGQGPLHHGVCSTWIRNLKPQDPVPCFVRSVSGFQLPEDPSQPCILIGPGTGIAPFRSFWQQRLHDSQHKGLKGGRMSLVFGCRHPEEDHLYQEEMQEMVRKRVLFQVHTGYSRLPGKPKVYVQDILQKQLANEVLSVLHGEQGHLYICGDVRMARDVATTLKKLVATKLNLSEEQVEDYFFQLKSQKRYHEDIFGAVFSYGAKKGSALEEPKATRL
Nature of the experiment: iNOS Dimerization Inhibition assay (Griess, Raw 264.7 cells, LPS/IFN-γ). The format is cell-based, murine. The method, then:
iNOS Dimerization Inhibition assay. Raw 264.7 cells were grown to confuency in DMEM supplemented with 10% FBS and pen/strep. Cells were then plated into 96 well plates at 50,000 cells per well. After 12h of growth a serial dilution of test compound was added along with e.coli LPS (50 ug/ml final) and IFN-Y (500 ng/ml final) with a vehicle control. Compounds and cells were allowed to interact for 48 h to allow for full degradation of undrugged active dimeric species. After 48 h, 50 uL of the media from each well was removed and mixed with 50 uL Griess Reagent 1 (Promega Griess assay kit). This mixture was incubated for 5 mins and then 50 uL Reagent 2 was added. The plate was read at 530 nm and an IC50 calculated.
Background: Griess reagent forms a coloured azo dye with nitrite.

In experiment [2] the target is T2, nNOS (Rattus norvegicus, UniProt P29476).
T2 construct: expressed in transfected cells; host or cells: HEK293 (stably transduced, G418 selection)
The experiment can be described thus: nNOS Dimerization Inhibition assay (Griess, Hek293 cells expressing rat nNOS). The format is cell-based. The method, then: (§1) nNOS Dimerization Inhibition assay. Hek293 cells stably transduced to express rat nNOS were grown to confuency in DMEM supplemented with 10% FBS, pen/strep and 0.4 mg/mL G418. Cells were then plated into 96 well plates at 50,000 cells per well. After 12 h of growth a serial dilution of test compound was added with a vehicle control leaving one additional lane empty as a second activator control. Compounds and cells were allowed to interact for 48 h to allow for full degradation of undrugged active dimeric species. After 48 h […] of a 10 mM calcium ionophore stock was added. After 4 h, 50 uL of the media from each well was removed and mixed with 50 uL Griess Reagent 1 (Promega Griess assay kit). This mixture was incubated for 5 mins and then 50 uL Reagent 2 was added. The plate was read at 530 nm and an IC50 calculated.

Experiment [3] concerns the target T3, eNOS (Bos taurus, UniProt P29473).
T3 construct: expressed in transfected cells; host or cells: HEK293 (stably transduced)
T3 sequence (P29473 1-1205): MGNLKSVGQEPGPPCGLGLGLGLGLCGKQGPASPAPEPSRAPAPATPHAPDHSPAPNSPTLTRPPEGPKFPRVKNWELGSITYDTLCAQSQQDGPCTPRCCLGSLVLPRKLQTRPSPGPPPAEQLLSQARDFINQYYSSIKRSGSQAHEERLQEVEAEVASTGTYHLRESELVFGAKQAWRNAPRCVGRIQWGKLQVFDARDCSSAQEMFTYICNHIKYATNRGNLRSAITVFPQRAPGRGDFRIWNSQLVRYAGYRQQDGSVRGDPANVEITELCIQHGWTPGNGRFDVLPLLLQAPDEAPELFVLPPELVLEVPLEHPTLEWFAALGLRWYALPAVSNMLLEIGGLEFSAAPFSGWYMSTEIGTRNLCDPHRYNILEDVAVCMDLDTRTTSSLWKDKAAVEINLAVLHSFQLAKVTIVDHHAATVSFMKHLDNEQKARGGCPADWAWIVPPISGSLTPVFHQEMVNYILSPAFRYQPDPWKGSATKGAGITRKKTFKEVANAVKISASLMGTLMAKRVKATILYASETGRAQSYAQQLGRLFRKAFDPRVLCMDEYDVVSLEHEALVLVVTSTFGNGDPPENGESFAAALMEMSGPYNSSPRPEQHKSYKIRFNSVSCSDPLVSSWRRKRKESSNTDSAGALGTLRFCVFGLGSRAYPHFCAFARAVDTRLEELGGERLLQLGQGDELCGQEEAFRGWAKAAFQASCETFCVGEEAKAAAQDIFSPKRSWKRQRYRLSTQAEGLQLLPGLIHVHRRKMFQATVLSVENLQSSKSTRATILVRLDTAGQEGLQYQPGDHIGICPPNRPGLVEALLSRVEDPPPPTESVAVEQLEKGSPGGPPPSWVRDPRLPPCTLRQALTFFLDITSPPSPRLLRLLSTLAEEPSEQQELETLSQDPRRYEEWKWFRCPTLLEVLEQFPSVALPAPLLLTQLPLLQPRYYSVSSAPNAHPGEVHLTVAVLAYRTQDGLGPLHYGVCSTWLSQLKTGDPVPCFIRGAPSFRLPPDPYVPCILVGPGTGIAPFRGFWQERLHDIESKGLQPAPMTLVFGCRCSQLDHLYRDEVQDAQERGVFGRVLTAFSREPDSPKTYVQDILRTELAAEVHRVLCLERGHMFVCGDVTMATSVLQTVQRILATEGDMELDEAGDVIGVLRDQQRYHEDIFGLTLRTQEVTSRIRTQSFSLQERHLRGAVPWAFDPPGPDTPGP
Nature of the experiment: eNOS Dimerization Inhibition assay (Griess, Hek293 cells expressing bovine eNOS). The format is cell-based. The method, then: as §1
eNOS Dimerization Inhibition assay. The nNOS protocol was followed substituting Hek293 cells stably transduced to express bovine eNOS

T2 sequence (P29476 whole entry): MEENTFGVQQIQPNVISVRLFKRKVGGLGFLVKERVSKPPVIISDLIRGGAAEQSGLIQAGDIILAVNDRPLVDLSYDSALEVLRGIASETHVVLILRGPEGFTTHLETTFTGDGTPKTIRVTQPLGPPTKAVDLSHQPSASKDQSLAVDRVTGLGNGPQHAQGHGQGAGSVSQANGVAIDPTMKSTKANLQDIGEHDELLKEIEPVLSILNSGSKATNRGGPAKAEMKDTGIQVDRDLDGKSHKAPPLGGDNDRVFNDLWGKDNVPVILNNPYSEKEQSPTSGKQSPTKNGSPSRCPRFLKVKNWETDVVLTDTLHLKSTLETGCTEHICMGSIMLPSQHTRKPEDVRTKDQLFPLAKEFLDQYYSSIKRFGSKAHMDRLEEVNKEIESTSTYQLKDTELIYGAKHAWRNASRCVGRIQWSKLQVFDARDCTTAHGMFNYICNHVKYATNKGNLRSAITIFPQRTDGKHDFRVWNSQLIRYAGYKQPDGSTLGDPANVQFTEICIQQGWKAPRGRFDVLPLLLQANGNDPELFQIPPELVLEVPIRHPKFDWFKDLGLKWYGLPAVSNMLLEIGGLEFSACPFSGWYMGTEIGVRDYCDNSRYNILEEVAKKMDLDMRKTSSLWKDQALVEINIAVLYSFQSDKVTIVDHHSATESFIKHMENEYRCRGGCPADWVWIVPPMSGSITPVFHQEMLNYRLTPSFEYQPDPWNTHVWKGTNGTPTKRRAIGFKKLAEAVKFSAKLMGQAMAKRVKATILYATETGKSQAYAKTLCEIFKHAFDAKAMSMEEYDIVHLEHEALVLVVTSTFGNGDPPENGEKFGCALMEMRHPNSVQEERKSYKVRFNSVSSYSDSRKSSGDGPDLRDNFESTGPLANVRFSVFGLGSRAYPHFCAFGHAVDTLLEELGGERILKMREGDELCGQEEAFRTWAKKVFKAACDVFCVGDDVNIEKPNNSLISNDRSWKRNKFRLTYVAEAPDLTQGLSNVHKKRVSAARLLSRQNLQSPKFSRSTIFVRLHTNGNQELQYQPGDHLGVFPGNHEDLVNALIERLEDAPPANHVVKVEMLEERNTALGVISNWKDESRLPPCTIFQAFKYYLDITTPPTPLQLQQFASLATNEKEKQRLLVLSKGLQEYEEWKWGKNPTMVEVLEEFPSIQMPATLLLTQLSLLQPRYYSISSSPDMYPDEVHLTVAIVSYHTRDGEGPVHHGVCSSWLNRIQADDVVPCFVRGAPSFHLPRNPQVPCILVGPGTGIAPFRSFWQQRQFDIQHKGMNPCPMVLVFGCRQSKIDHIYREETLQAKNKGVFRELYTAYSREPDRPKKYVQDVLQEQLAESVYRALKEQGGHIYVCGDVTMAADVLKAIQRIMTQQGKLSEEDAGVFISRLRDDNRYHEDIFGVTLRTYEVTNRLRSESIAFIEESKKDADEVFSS

Consider `O=C(C[C@H]1CCCN1c1ccnc(-n2ccnc2)n1)NCc1ccc2c(c1)OCO2` [Compound 1, (R)-2-[2-(1H-imidazol-1-yl)-4-pyrimidylpyrrolidin-2-yl)-N-(benzo[d][1,3]dioxo-5-ylmethyl)acetamide], for which the results for the half-inhibitory concentration (IC50) in experiment [1], in experiment [2] and in experiment [3] were 0.1 µM, 0.2 µM and 18 µM, respectively.
The matching figures for `COc1ccc(CNC(=O)C[C@H]2CCCN2c2ccnc(-n3ccnc3)n2)cc1OC` [Compound 2, (R)-2-[2-(1H-imidazol-1-yl)-4-pyrimidylpyrrolidin-2-yl]-N-(3,4-dimethoxybenzyl) acetamide]: 0.62 µM, 0.14 µM and 21.1 µM.
As for `CCOc1cc(CNC(=O)C[C@H]2CCCN2c2ccnc(-n3ccnc3)n2)ccc1OC` [Compound 3, (R)-2-[2-(1H-imidazol-1-yl)-4-pyrimidylpyrrolidin-2-yl]-N-(3-ethoxy-4-methoxybenzy)acetamide], the IC50 in experiment [1] came to 3.7 µM; in experiment [2], 6.7 µM; in experiment [3], 57 µM.
The matching figures for “(R)-2-[2-(1H-imidazol-1-yl)-4-pyrimidylpyrrolidin-2-yl]-N-(3-benzyl-4-methoxybenzyl)acetamide [Compound 5]”: 6 µM, 14.1 µM and 55 µM.
The like results for “(R)-2-[2-(1H-imidazol-1-yl)-4-pyrimidylpyrrolidin-2-yl]-N-(4-methoxy-3-n-propylbenzyl)acetamide [Compound 4]” were, in that order, 4.5 µM, 7.4 µM and 86 µM.

For orientation: IC50 means the concentration needed to halve the response being measured. Read a high IC50 as weaker potency.
